Test results: publication PMC9940851, “Seleno Containing Compounds as Potent and Selective Antifungal Agents” (ACS Infectious Diseases, 2022)
In brackets after ≈: the same amount, converted by molar mass.

Assays:
[1] = tested on: T1, ATCC M. furfur 14521; assay: microbe, parasite or virus in culture; details: Malassezia furfur
T1 construct: ATCC 14521
Experimental: (§1) Inoculum preparations for antifungal assays were performed following the CLSI guidelines for antifungal susceptibility testing of yeasts.[31] Antifungal activity was evaluated on unicellular yeasts Candida albicans ATCC 10231, Candida glabrata ATCC 90030 (DSMZ 11226), Malassezia pachydermatis CDC 16334 (DSMZ 6172), Malassezia globosa ATCC MYA 4612, and Malassezia furfur ATCC 14521. All the fungal strains were stored at −80 °C in cryovials. Then Candida spp. and Malassezia pachydermatis were reactivated in RPMI 1640 broth for 24–48 h at 35 °C. The so obtained fresh cultures were streaked onto Sabouraud dextrose agar and incubated for 24–48 h at 35 °C. Malassezia globosa and furfur were reactivated in modified RPMI 1640 broth[32] for 24–48 h at 35 °C (M. furfur) and 33 °C (M. globosa), and then the cultures were streaked onto Leeming and Notman agar (MLNA) and incubated for 48–72 h at 35 °C for M. furfur and at 33 °C for M. globosa. The fungal inoculum for the testing was prepared by suspending in phosphate buffer (PB) 10 mM pH 7 4–5 colonies of about 1 mm diameter. The fungal suspension was then adjusted to a final optical density of 0.5 McFarland standard (1–5 × 10^6 cells/mL). The compound solutions were tested in a range of concentrations from 0.01 μg/mL to 256 μg/mL, and 50 μL were then added in 96 wells microtiter plates with 50 μL of fungal inoculum and incubated for 24–48 h at 35 °C. Growth and sterility controls were performed. […] Compounds 3a, 3c, 5b, 7a–d, 9c, 11e, 11i, and 14a,b were selected as representatives of the chemical moieties synthesized prior to their screen on yeasts of biomedical relevance such as M. pachydermatis DSMZ 6172, C. albicans ATCC 10231, and C. glabrata ATCC 90030 (DSMZ 11226) strains. The clinical used drugs Ketoconazole, SeS2, and Amphotericin B were included as references (Table 1).

[2] = tested on: T2, M. globosa ATCC MYA 4612; assay: microbe, parasite or virus in culture; details: Malassezia globosa
T2 construct: ATCC MYA 4612
Experimental: as §1

[3] = tested on: T3, C. glabrata DSMZ 11226; assay: microbe, parasite or virus in culture; set-up: broth microdilution MIC, M. pachydermatis and Candida, 35 °C; details: Nakaseomyces glabratus, DSMZ11226
T3 construct: DSMZ 11226 (ATCC 90030)
Experimental: as §1

[4] = tested on: T4, M. pachydermatis DSMZ 6172; assay: microbe, parasite or virus in culture; set-up: broth microdilution MIC, M. pachydermatis and Candida, 35 °C; details: Malassezia pachydermatis, DSMZ6172
T4 construct: DSMZ 6172 (CDC 16334)
Experimental: as §1

[5] = tested on: C. albicans; assay: microbe, parasite or virus in culture; set-up: broth microdilution MIC, M. pachydermatis and Candida, 35 °C; details: Candida albicans
Experimental: as §1

[6] = target: T5, MgCA (Malassezia globosa, UniProt A8Q1N3); assay: stopped-flow CO2 hydrase assay; assay type: biochemical
T5 construct: gene MGL_1814
T5 sequence (A8Q1N3 1-241): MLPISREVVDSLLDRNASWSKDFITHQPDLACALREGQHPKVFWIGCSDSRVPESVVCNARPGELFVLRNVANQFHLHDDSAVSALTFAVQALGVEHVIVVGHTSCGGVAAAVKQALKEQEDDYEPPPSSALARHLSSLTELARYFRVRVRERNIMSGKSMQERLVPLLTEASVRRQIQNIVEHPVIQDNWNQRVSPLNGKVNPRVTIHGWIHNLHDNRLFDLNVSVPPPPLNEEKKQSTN
Method in brief: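 Recombinant carbonic anhydrase (5–12 nM) was preincubated with inhibitor for 15 min at room temperature. CO2 hydration (1.7–17 mM CO2) was then followed by stopped-flow using 0.2 mM phenol red at 557 nm in 20 mM Hepes pH 7.4 with 20 mM Na2SO4, over 10–100 s. Initial rates came from at least six traces, minus uncatalysed rates, and at least three determinations were averaged. Ki was obtained by nonlinear least-squares fitting with the Cheng-Prusoff equation.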

[7] = target: T6, MpaCA (Malassezia pachydermatis, UniProt A0A0M8MPA4); assay: stopped-flow CO2 hydrase assay; assay type: biochemical
T6 construct: gene Malapachy_3798
T6 sequence (A0A0M8MPA4 1-242): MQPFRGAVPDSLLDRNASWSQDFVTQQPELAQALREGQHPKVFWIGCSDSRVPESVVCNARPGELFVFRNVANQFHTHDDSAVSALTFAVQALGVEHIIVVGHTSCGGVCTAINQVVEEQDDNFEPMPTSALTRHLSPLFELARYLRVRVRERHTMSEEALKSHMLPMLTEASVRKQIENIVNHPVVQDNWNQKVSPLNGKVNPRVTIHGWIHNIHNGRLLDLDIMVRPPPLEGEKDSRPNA

SMILES | MIC [1] | MIC [2] | MIC [3] | MIC [4] | MIC [5] | Ki [6] | Ki [7]
CC(=O)N1CCN(c2ccc(OC[C@@H]3CO[C@@](Cn4ccnc4)(c4ccc(Cl)cc4Cl)O3)cc2)CC1 (racemic) [Ketoconazole] | 0.25 µg/mL (≈ 0.47 µM) | 0.25 µg/mL (≈ 0.47 µM) | 96 ± 37 µg/mL (≈ 181 µM) | 0.03 µg/mL (≈ 0.0565 µM) | 0.05 ± 0.02 µg/mL (≈ 0.0941 µM) | – | –
NS(=O)(=O)c1ccc(NC(=[Se])Nc2ccccc2)cc1 [3a] | 0.5 µg/mL (≈ 1.41 µM) | 4.3 ± 1.97 µg/mL (≈ 12.1 µM) | 10.7 µg/mL (≈ 30.2 µM) | 0.5 µg/mL (≈ 1.41 µM) | 64 µg/mL (≈ 181 µM) | 0.599 µM | 0.514 µM
NS(=O)(=O)c1ccc(NC(=[Se])Nc2ccccc2F)cc1 [3c] | 16 µg/mL (≈ 43 µM) | > 256 µg/mL | 64 µg/mL (≈ 172 µM) | 64 µg/mL (≈ 172 µM) | 341 µg/mL (≈ 917 µM) | 0.721 µM | 0.152 µM
NS(=O)(=O)c1ccc(CCNC(=[Se])Nc2ccccc2F)cc1 [5b] | 1 µg/mL (≈ 2.5 µM) | 9 ± 5.9 µg/mL (≈ 22.5 µM) | 3.3 µg/mL (≈ 8.24 µM) | 0.25 µg/mL (≈ 0.624 µM) | 107 µg/mL (≈ 267 µM) | 0.633 µM | 0.149 µM
NS(=O)(=O)c1ccc(NC(=[Se])NC(=O)c2ccccc2)cc1 [7a] | 0.85 ± 0.36 µg/mL (≈ 2.22 µM) | 14.7 ± 3.26 µg/mL (≈ 38.5 µM) | 32 µg/mL (≈ 83.7 µM) | 0.5 µg/mL (≈ 1.31 µM) | 128 µg/mL (≈ 335 µM) | 3.85 µM | 44.8 µM
NS(=O)(=O)c1ccc(NC(=[Se])NC(=O)c2ccc3c(c2)OCO3)cc1 [7b] | 0.5 µg/mL (≈ 1.17 µM) | 16 ± 8.76 µg/mL (≈ 37.5 µM) | 16 µg/mL (≈ 37.5 µM) | 0.5 µg/mL (≈ 1.17 µM) | 128 µg/mL (≈ 300 µM) | 4.86 µM | 20.4 µM
NS(=O)(=O)c1ccc(NC(=[Se])NC(=O)c2cc(Br)cc(OC(F)(F)F)c2)cc1 [7c] | 4 µg/mL (≈ 7.34 µM) | 128 µg/mL (≈ 235 µM) | 8 µg/mL (≈ 14.7 µM) | 0.5 µg/mL (≈ 0.917 µM) | 64 µg/mL (≈ 117 µM) | 4.3 µM | 83.5 µM
CC(=O)Oc1ccccc1C(=O)NC(=[Se])Nc1ccc(S(N)(=O)=O)cc1 [7d] | 2.7 ± 1.15 µg/mL (≈ 6.13 µM) | 256 µg/mL (≈ 581 µM) | 64 µg/mL (≈ 145 µM) | 3.33 ± 1.15 µg/mL (≈ 7.56 µM) | 128 µg/mL (≈ 291 µM) | 5.88 µM | 66.8 µM
NS(=O)(=O)c1ccc(CCNC(=[Se])NC(=O)c2ccc3c(c2)OCO3)cc1 [9c] | 2 ± 1.37 µg/mL (≈ 4.4 µM) | 37.3 ± 13.1 µg/mL (≈ 82.1 µM) | > 256 µg/mL | 1 µg/mL (≈ 2.2 µM) | > 256 µg/mL | 1.78 µM | 55.9 µM
O=C(NC(=[Se])Nc1ccc(S(=O)(=O)Nc2nccs2)cc1)c1ccccc1 [10a, N-((4-(N-(Thiazol-2-yl)sulfamoyl)phenyl)carbamoselenoyl)benzamide] | 8 µg/mL (≈ 17.2 µM) | 128 µg/mL (≈ 275 µM) | – | 1 µg/mL (≈ 2.15 µM) | – | 52.8 µM | 42.9 µM
O=C(NC(=[Se])Nc1ccc(S(=O)(=O)Nc2nccs2)cc1)c1cc(Br)cc(OC(F)(F)F)c1 [10b, 3-Bromo-N-((4-(N-(thiazol-2-yl)sulfamoyl)phenyl)carbamoselenoyl)-5-(trifluoromethoxy)benzamide] | 427 ± 148 µg/mL (≈ 679 µM) | 341 ± 148 µg/mL (≈ 543 µM) | – | 16 µg/mL (≈ 25.5 µM) | – | 9.26 µM | 85.3 µM
CCCCCCCc1ccc(C(=O)NC(=[Se])Nc2ccc(S(=O)(=O)Nc3nccs3)cc2)cc1 [10c, 4-Heptyl-N-((4-(N-(thiazol-2-yl)sulfamoyl)phenyl)carbamoselenoyl)benzamide] | 4 µg/mL (≈ 7.1 µM) | > 256 µg/mL | – | 0.8 ± 0.29 µg/mL (≈ 1.42 µM) | – | 60.6 µM | 91.9 µM
